# Experimental data: patent US10138230B2, “Autotaxin inhibitors” (CANCER RESEARCH TECHNOLOGY LIMITED, priority 2015, dated 2018)
# Where a name gives a salt, the structure may show the parent alone.
# Target: human recombinant ATX (Homo sapiens (Human), UniProt Q13822)
# Assay: Autotaxin (ATX) activity Quanta Red assay
# Assay type: biochemical
# Settings: 15 μM Rac-1-Palmitoyl-glycero-3-phosphocholine, 2 hours room temperature, determined in duplicate
# Summary of the method: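 Human recombinant ATX (0.8 μg/mL final) in 50 mM Tris-HCl pH 8.0, 5 mM CaCl2, 4% DMSO; 15 μM rac-1-palmitoyl-glycero-3-phosphocholine with HRP/choline oxidase-coupled Quanta Red, 2 h at room temperature.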
row,Compound,IC50 [nM]
1,"O=C(Nc1nnc(CCC2CCCO2)s1)[C@H]1CC(=O)N(c2ccc(CN3CCCCC3)cc2)C1 (stereo partly drawn) [Compound F191, (3S)-5-oxo-1-[4-(1-piperidylmethyl)phenyl]-N-[5-(2-tetrahydrofuran-2-ylethyl)-1,3,4-thiadiazol-2-yl]pyrrolidine-3-carboxamide]",615
2,"Cn1nc(NC(=O)C2CC(=O)N(c3ccc(CN4CCOCC4)cc3)C2)cc1CCc1ccc(Cl)cc1 (stereo not shown) [Compound F192, N-[5-[2-(4-chlorophenyl)ethyl]-1-methyl-pyrazol-3-yl]-1-[4-(morpholinomethyl)phenyl]-5-oxo-pyrrolidine-3-carboxamide]",773
3,"O=C(NC1CC(=O)N(c2ccc(CN3CCCCC3)cc2)C1)c1nnc(CCc2ccccc2)o1 (stereo not shown) [Compound F194, N-[5-oxo-1-[4-(1-piperidylmethyl)phenyl]pyrrolidin-3-yl]-5-(2-phenylethyl)-1,3,4-oxadiazole-2-carboxamide]",649
4,"O=C(NC1CC(=O)N(c2ccc(CN3CCCCC3)cc2)C1)c1nnc(CCc2ccco2)s1 (stereo not shown) [Compound F195, 5-[2-(2-furyl)ethyl]-N-[5-oxo-1-[4-(1-piperidylmethyl)phenyl]pyrrolidin-3-yl]-1,3,4-thiadiazole-2-carboxamide]",766
5,"O=C(NC1CC(=O)N(c2ccc(CN3CCCCC3)cc2)C1)c1cc(CCc2ccccc2)no1 (stereo not shown) [Compound F198, N-[5-oxo-1-[4-(1-piperidylmethyl)phenyl]pyrrolidin-3-yl]-3-(2-phenylethyl)isoxazole-5-carboxamide]",989
6,"O=C(Nc1cc(CCc2ccccc2)no1)C1CC(=O)N(c2ccc(CN3CCOCC3)cc2)C1 (stereo not shown) [Compound F200, 1-[4-(morpholinomethyl)phenyl]-5-oxo-N-[3-(2-phenylethyl)isoxazol-5-yl]pyrrolidine-3-carboxamide]",760
7,"O=C(Nc1cnc(CCc2ccccc2)s1)C1CC(=O)N(c2ccc(CN3CCOCC3)cc2)C1 (stereo not shown) [Compound F201, 1-[4-(morpholinomethyl)phenyl]-5-oxo-N-[2-(2-phenylethyl)thiazol-5-yl]pyrrolidine-3-carboxamide]",1070
8,"O=C(NC1CC(=O)N(c2ccc(CN3CCCCC3)cc2)C1)c1cc(CCc2ccccc2)[nH]n1 (stereo not shown) [Compound F204, 5-phenethyl-1H-pyrazole-3-carboxylic acid [5-oxo-1-(4-piperidin-1-ylmethyl-phenyl)-pyrrolidin-3-yl]-amide hydrochloride]",1080

# The next molecules have a lower IC50 than those just listed; values first:
row,IC50 [nM],Compound
1,526,"O=C(Nc1nnc(CCC2CCOCC2)s1)[C@H]1CC(=O)N(c2ccc(CN3CCCCC3)cc2)C1 [Compound F190, (3S)-5-oxo-1-[4-(1-piperidylmethyl)phenyl]-N-[5-(2-tetrahydropyran-4-ylethyl)-1,3,4-thiadiazol-2-yl]pyrrolidine-3-carboxamide]"
2,465,"O=C(NC1CC(=O)N(c2ccc(CN3CCCCC3)cc2)C1)c1ncc(CCc2ccccc2)s1 (stereo not shown) [Compound F197, N-[5-oxo-1-[4-(1-piperidylmethyl)phenyl]pyrrolidin-3-yl]-5-(2-phenylethyl)thiazole-2-carboxamide]"
3,385,"NCc1ccc(N2CC(C(=O)Nc3nnc(CCc4ccc(Cl)cc4)s3)CC2=O)cc1 (stereo not shown) [Compound F203, 1-(4-aminomethyl-phenyl)-5-oxo-pyrrolidine-3-carboxylic acid {5-[2-(4-chloro-phenyl)-ethyl]-[1,3,4]thiadiazol-2-yl}-amide]"
4,293,"COc1ccc(CCc2cc(NC(=O)C3CC(=O)N(c4ccc(CN5CCOCC5)cc4)C3)on2)cc1 (stereo not shown) [Compound F199, N-[3-[2-(4-methoxyphenyl)ethyl]isoxazol-5-yl]-1-[4-(morpholinomethyl)phenyl]-5-oxo-pyrrolidine-3-carboxamide]"
5,103,"O=C(NC1CC(=O)N(c2ccc(CN3CCCCC3)cc2)C1)c1nnc(NCc2ccc(Cl)cc2)s1 (stereo not shown) [Compound F196, 5-[(4-chlorophenyl)methyl-amino]-N-[5-oxo-1-[4-(1-piperidylmethyl)phenyl]pyrrolidin-3-yl]-1,3,4-thiadiazole-2-carboxamide]"
